# The supplement of paper PMC11061612
# How the values were obtained:
# Test in all cases: Bliss excess, mean over the matrix (fraction); higher = more synergy
# [1] = system: JSC-1 (B-Cell Non-Hodgkin's Lymphoma)
# In short: (§1)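 Cell lines grown in DMEM/F12 or RPMI with 10% FBS were plated in 1536-well plates and held 24 hours at 37°C, 5% CO2 before 72 hours of exposure to two-drug dose matrices, with DMSO typically at 0.2%. CellTiter-Glo 2.0 luminescence gave viability, which was converted to inhibition. Vehicle wells were set to 0 and blank wells to 1. Combination Emax is the second-highest inhibition in the matrix, and Bliss excess is the observed combination effect minus the expected EA + EB − EA·EB, where EA and EB are the single-agent effects.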
# [2] = system: BICR22 (Oral Cavity Carcinoma)
# In short: as §1
# [3] = system: SISO (Cervical Carcinoma)
# In short: as §1
# [4] = system: NCI-H2066 (Squamous Cell Lung Carcinoma)
# In short: as §1
# [5] = system: NCI-H1693 (Lung Adenocarcinoma)
# In short: as §1
# [6] = system: LN-405 (Glioblastoma)
# In short: as §1
# [7] = system: U-2-OS (Osteosarcoma)
# In short: as §1
# [8] = system: A549 (Lung Adenocarcinoma)
# In short: as §1
# [9] = system: SK-MES-1 (Squamous Cell Lung Carcinoma)
# In short: as §1
# [10] = system: CAPAN-2 (Pancreatic Carcinoma)
# In short: as §1
# [11] = system: COLO-824 (Breast Carcinoma)
# In short: as §1
# [12] = system: KARPAS-422 (B-Cell Non-Hodgkin's Lymphoma)
# In short: as §1
# [13] = system: A3-KAW (B-Cell Non-Hodgkin's Lymphoma)
# In short: as §1
# [14] = system: SK-MG-1 (Low Grade Glioma)
# In short: as §1
# [15] = system: NCI-H1650 (Lung Adenocarcinoma)
# In short: as §1
# [16] = system: ECC10 (Gastric Carcinoma)
# In short: as §1
# [17] = system: NCI-H1666 (Lung Adenocarcinoma)
# In short: as §1
# [18] = system: Hs-445 (Non-Cancerous)
# In short: as §1
# [19] = system: CCK-81 (Colorectal Carcinoma)
# In short: as §1
# [20] = system: NCI-H2141 (Small Cell Lung Carcinoma)
# In short: as §1
Structure (SMILES),Bliss excess [1],Bliss excess [2],Bliss excess [3],Bliss excess [4],Bliss excess [5],Bliss excess [6],Bliss excess [7],Bliss excess [8],Bliss excess [9],Bliss excess [10],Bliss excess [11],Bliss excess [12],Bliss excess [13],Bliss excess [14],Bliss excess [15],Bliss excess [16],Bliss excess [17],Bliss excess [18],Bliss excess [19],Bliss excess [20]
"CCN(CCO)CCCOc1ccc2c(Nc3cc(CC(=O)Nc4cccc(F)c4)[nH]n3)ncnc2c1 [AZD2811] + C=CCn1c(=O)c2cnc(Nc3ccc(N4CCN(C)CC4)cc3)nc2n1-c1cccc(C(C)(C)O)n1 [AZD1775] (first compound max 1 µM, partner max 1 µM)",-0.0038,-0.0093,0.0157,-0.0589,0.0099,-0.0312,-0.0039,0.015,-0.0112,-0.0462,-0.0967,-0.0349,0.0539,-0.0121,-0.0277,-0.0021,-0.0282,-0.004,-0.037,-0.0082
"CCN(CCO)CCCOc1ccc2c(Nc3cc(CC(=O)Nc4cccc(F)c4)[nH]n3)ncnc2c1 [AZD2811] + C[C@@H]1COCCN1C2=NC(=NC(=C2)C3(CC3)[S@](=N)(=O)C)C4=C5C=CNC5=NC=C4 [AZD6738] (first compound max 1 µM, 7x7, partner max 10 µM)",-0.0495,-0.059,0.0006,-0.0114,-0.0654,-0.0386,-0.0297,-0.106,-0.0484,-0.0412,-0.0843,-0.0581,-0.0417,-0.0271,-0.0801,-0.0454,-0.0633,-0.01,-0.0388,-0.0873
"CCN(CCO)CCCOc1ccc2c(Nc3cc(CC(=O)Nc4cccc(F)c4)[nH]n3)ncnc2c1 [AZD2811] + O=C(c1cc(Cc2n[nH]c(=O)c3ccccc23)ccc1F)N1CCN(C(=O)C2CC2)CC1 [Olaparib] (first compound max 1 µM, 7x7, partner max 10 µM)",0.0145,-0.0861,0.0951,-0.022,0.007,-0.0224,0.0112,-0.0061,-0.0127,-0.0222,-0.0071,0.0267,0.0053,0.0331,-0.025,-0.107,-0.0746,0.0459,0.032,-0.0557
"CN(CCO)CC[C@H](CSc1ccccc1)Nc1ccc(S(=O)(=O)NC(=O)c2ccc(N3CCC([C@@H](O)c4ccccc4-c4ccc(Cl)cc4)CC3)cc2)cc1S(=O)(=O)C(F)(F)F [AZD4320] + C[C@@H]1COCCN1C2=NC(=NC(=C2)C3(CC3)[S@](=N)(=O)C)C4=C5C=CNC5=NC=C4 [AZD6738] (first compound max 1 µM, 7x7, partner max 10 µM)",-0.0276,-0.0433,-0.0078,-0.0437,-0.0055,0.0063,-0.0394,-0.0778,0.0228,-0.0461,-0.0365,0.0896,-0.0229,0.0076,0.0045,-0.0256,-0.0645,0.0592,-0.0546,–
"COc1nnc2ccc(N3CCC(c4ccc(OCCN5CCN(C)C(=O)[C@H]5C)cc4)CC3)nn12 [AZD5153] + CN(CC[C@H](CSC1=CC=CC=C1)NC2=C(C=C(C=C2)S(=O)(=O)NC(=O)C3=CC=C(C=C3)N4CCC(CC4)[C@H](C5=CC=CC=C5C6=CC=C(C=C6)Cl)O)S(=O)(=O)C(F)(F)F)CCO [AZD4320] (first compound max 1 µM, 7x7, partner max 1 µM)",-0.0243,–,-0.0052,–,0.04,0.0448,0.0178,-0.0236,0.0704,–,0.057,–,-0.0232,0.0462,-0.0124,–,–,0.085,–,0.048
"CC(=O)c1c(C)c2cnc(Nc3ccc(N4CCNCC4)cn3)nc2n(C2CCCC2)c1=O [Palbociclib] + CN(CC[C@H](CSC1=CC=CC=C1)NC2=C(C=C(C=C2)S(=O)(=O)NC(=O)C3=CC=C(C=C3)N4CCC(CC4)[C@H](C5=CC=CC=C5C6=CC=C(C=C6)Cl)O)S(=O)(=O)C(F)(F)F)CCO [AZD4320] (first compound max 10 µM, 7x7, partner max 1 µM)",-0.0418,–,-0.0669,–,-0.0313,-0.0276,-0.0727,-0.0929,-0.0549,–,0.0326,–,0.0082,-0.078,-0.0805,–,–,0.0465,–,-0.067
"CCc1c2c(nc3ccc(O)cc13)-c1cc3c(c(=O)n1C2)COC(=O)[C@]3(O)CC [SN-38] + O=C(c1cc(Cc2n[nH]c(=O)c3ccccc23)ccc1F)N1CCN(C(=O)C2CC2)CC1 [Olaparib] (first compound max 0.3 µM, 7x7, partner max 10 µM)",-0.0044,0.0626,0.0546,-0.0477,–,-0.0524,0.0159,0.0064,–,-0.0382,–,0.0276,–,0.0512,0.0138,0.119,0.0889,0.0811,0.0414,0.0521
"C[C@@H](c1ccc2nccn2c1)n1nnc2ncc(-c3cnn(C)c3)nc21 [Savolitinib] + CN(CC[C@H](CSC1=CC=CC=C1)NC2=C(C=C(C=C2)S(=O)(=O)NC(=O)C3=CC=C(C=C3)N4CCC(CC4)[C@H](C5=CC=CC=C5C6=CC=C(C=C6)Cl)O)S(=O)(=O)C(F)(F)F)CCO [AZD4320] (first compound max 1 µM, 7x7, partner max 1 µM)",-0.0221,–,-0.045,–,-0.0491,-0.0518,-0.0128,-0.0576,-0.0188,–,-0.0101,–,-0.0158,-0.0651,-0.0646,–,–,-0.0452,–,-0.0695
